Measurements as given in US20240246942A1, “KINASE INHIBITORS FOR THE TREATMENT OF NEURODEGENERATIVE DISEASES” (priority 2020, published 2024).
Read-outs that look alike come from different tables or passages of the source.

Columns and labels:
Test in all cases: biochemical
[1] = target: T1, panel of 374 wild-type kinases (Homo sapiens, UniProt Q13554); details: read-out: % Enzyme Activity (relative to DMSO controls), CAMK2b
T1 construct: purchased Reaction Biology Corporation

[2] = target: T2, panel of 374 wild-type kinases (Homo sapiens, UniProt Q9UM73); details: read-out: % Enzyme Activity (relative to DMSO controls), ALK
T2 construct: purchased Reaction Biology Corporation
T2 sequence (Q9UM73 19-1620): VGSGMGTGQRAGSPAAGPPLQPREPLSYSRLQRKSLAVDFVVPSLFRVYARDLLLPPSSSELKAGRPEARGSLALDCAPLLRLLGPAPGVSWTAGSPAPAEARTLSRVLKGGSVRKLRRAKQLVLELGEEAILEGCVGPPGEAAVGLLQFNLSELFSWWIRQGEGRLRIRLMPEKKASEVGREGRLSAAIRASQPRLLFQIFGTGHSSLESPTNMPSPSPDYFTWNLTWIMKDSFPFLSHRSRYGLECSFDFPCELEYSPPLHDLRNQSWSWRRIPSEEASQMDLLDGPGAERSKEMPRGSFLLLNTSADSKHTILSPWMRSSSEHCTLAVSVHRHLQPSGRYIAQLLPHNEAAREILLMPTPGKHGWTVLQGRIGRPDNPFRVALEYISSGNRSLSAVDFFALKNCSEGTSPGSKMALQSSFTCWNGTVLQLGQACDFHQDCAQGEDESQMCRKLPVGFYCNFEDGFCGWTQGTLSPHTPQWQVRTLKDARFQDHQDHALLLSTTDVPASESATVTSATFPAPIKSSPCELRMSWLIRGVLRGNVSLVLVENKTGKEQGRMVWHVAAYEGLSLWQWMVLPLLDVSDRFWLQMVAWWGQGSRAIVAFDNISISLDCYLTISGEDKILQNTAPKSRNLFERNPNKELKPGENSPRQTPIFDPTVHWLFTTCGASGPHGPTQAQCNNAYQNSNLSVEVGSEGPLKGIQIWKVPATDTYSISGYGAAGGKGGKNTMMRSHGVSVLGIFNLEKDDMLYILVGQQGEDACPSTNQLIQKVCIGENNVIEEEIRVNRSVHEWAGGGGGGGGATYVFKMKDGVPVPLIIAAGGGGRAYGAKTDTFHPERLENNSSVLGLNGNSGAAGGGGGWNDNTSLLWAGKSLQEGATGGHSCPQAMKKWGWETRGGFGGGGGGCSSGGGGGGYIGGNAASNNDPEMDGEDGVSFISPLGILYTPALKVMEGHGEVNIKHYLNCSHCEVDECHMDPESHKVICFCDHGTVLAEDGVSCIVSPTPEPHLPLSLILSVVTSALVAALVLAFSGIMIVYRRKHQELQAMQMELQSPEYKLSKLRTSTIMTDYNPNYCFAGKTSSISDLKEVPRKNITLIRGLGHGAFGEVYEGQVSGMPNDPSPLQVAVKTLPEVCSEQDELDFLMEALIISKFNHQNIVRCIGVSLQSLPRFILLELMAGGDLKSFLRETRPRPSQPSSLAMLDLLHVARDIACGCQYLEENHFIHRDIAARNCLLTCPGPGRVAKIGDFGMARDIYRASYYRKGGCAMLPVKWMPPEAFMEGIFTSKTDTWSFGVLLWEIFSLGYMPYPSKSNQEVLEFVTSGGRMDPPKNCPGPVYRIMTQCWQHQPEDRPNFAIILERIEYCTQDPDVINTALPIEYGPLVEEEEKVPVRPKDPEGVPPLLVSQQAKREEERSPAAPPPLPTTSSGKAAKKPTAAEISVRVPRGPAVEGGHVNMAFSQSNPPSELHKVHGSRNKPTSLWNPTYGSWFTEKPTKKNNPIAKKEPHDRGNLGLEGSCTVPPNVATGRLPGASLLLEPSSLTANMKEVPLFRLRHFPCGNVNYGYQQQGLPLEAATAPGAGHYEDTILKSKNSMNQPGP

[3] = target: T3, panel of 374 wild-type kinases (Homo sapiens, UniProt P08581); details: read-out: % Enzyme Activity (relative to DMSO controls), c-MET
T3 construct: purchased Reaction Biology Corporation

[4] = target: T4, panel of 374 wild-type kinases (Homo sapiens, UniProt Q9UQB9); details: read-out: % Enzyme Activity (relative to DMSO controls), Aurora C
T4 construct: purchased Reaction Biology Corporation
T4 sequence (Q9UQB9 1-309): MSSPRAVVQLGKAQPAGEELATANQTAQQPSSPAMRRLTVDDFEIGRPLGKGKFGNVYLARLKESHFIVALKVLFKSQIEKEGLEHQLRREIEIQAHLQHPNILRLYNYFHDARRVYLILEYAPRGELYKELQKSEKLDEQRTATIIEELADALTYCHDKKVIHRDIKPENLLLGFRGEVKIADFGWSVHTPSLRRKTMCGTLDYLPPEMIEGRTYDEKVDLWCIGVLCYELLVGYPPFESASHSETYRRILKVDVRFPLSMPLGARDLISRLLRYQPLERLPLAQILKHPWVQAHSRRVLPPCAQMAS

[5] = target: T5, panel of 374 wild-type kinases (Homo sapiens, UniProt P31749); details: read-out: % Enzyme Activity (relative to DMSO controls), AKT1
T5 construct: purchased Reaction Biology Corporation
T5 sequence (P31749 whole entry): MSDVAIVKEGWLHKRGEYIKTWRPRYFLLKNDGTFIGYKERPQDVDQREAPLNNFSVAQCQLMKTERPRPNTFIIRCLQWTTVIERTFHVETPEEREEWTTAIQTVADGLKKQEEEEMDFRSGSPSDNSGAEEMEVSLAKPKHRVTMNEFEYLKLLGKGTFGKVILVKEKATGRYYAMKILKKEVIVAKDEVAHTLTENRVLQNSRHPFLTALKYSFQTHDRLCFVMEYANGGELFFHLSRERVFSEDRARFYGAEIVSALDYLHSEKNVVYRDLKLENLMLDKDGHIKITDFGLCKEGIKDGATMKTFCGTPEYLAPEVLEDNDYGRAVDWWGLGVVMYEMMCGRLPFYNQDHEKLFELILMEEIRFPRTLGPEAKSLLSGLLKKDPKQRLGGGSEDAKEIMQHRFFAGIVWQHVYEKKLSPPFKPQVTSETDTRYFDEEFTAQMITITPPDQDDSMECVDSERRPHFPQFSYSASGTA

[6] = target: T6, panel of 374 wild-type kinases (Homo sapiens, UniProt Q00535)
T6 construct: purchased Reaction Biology Corporation

[7] = target: T7, panel of 374 wild-type kinases (Homo sapiens, UniProt Q6DT37); details: read-out: % Enzyme Activity (relative to DMSO controls), DMPK2
T7 construct: purchased Reaction Biology Corporation

[8] = target: T8, panel of 374 wild-type kinases (Homo sapiens, UniProt Q8NG66); details: read-out: % Enzyme Activity (relative to DMSO controls), NEK11
T8 construct: purchased Reaction Biology Corporation
T8 sequence (Q8NG66 1-645): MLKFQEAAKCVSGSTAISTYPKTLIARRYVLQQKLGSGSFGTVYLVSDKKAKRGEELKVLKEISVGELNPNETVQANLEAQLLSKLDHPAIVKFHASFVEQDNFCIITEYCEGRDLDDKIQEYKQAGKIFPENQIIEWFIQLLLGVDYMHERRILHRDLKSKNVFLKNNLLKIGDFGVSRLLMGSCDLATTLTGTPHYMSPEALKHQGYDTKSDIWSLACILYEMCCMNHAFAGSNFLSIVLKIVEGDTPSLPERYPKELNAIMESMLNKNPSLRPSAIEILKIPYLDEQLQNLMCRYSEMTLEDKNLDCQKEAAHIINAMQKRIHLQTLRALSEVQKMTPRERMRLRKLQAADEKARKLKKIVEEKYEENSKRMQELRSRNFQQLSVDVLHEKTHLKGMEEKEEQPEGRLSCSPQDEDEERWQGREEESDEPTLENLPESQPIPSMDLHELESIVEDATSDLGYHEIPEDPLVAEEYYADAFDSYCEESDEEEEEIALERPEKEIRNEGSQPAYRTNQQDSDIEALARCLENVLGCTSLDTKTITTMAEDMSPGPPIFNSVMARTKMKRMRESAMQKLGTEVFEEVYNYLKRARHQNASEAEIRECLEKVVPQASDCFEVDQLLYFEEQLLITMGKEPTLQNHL

[9] = target: T9, panel of 374 wild-type kinases (Homo sapiens, UniProt Q06418); details: read-out: % Enzyme Activity (relative to DMSO controls), kinase TYRO3/SKY
T9 construct: purchased Reaction Biology Corporation
T9 sequence (Q06418 41-890): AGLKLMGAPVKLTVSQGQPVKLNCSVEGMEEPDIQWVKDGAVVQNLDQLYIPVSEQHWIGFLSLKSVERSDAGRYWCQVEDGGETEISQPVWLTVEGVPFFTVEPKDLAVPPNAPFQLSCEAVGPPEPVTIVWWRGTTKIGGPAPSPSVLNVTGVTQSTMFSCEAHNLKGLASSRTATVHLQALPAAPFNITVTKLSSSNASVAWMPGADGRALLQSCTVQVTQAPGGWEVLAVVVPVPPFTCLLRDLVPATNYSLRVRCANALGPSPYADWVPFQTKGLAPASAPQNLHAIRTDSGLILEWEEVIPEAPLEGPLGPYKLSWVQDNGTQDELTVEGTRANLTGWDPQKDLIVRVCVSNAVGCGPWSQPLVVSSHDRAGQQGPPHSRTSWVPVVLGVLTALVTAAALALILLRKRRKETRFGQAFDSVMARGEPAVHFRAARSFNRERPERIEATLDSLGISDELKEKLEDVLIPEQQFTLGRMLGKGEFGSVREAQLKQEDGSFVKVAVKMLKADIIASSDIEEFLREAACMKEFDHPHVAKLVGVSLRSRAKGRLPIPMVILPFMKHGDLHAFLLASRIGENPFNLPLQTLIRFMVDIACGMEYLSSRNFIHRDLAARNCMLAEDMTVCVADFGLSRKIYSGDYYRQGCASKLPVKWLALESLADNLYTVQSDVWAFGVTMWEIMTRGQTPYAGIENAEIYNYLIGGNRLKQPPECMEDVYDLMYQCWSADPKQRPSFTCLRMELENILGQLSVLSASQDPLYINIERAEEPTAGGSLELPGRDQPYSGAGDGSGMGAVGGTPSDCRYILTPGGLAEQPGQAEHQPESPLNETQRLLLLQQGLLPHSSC

[10] = target: T10, panel of 374 wild-type kinases (Homo sapiens, UniProt P08922); details: read-out: % Enzyme Activity (relative to DMSO controls), kinase ROS/ROS1
T10 construct: purchased Reaction Biology Corporation
T10 sequence (P08922 28-2347): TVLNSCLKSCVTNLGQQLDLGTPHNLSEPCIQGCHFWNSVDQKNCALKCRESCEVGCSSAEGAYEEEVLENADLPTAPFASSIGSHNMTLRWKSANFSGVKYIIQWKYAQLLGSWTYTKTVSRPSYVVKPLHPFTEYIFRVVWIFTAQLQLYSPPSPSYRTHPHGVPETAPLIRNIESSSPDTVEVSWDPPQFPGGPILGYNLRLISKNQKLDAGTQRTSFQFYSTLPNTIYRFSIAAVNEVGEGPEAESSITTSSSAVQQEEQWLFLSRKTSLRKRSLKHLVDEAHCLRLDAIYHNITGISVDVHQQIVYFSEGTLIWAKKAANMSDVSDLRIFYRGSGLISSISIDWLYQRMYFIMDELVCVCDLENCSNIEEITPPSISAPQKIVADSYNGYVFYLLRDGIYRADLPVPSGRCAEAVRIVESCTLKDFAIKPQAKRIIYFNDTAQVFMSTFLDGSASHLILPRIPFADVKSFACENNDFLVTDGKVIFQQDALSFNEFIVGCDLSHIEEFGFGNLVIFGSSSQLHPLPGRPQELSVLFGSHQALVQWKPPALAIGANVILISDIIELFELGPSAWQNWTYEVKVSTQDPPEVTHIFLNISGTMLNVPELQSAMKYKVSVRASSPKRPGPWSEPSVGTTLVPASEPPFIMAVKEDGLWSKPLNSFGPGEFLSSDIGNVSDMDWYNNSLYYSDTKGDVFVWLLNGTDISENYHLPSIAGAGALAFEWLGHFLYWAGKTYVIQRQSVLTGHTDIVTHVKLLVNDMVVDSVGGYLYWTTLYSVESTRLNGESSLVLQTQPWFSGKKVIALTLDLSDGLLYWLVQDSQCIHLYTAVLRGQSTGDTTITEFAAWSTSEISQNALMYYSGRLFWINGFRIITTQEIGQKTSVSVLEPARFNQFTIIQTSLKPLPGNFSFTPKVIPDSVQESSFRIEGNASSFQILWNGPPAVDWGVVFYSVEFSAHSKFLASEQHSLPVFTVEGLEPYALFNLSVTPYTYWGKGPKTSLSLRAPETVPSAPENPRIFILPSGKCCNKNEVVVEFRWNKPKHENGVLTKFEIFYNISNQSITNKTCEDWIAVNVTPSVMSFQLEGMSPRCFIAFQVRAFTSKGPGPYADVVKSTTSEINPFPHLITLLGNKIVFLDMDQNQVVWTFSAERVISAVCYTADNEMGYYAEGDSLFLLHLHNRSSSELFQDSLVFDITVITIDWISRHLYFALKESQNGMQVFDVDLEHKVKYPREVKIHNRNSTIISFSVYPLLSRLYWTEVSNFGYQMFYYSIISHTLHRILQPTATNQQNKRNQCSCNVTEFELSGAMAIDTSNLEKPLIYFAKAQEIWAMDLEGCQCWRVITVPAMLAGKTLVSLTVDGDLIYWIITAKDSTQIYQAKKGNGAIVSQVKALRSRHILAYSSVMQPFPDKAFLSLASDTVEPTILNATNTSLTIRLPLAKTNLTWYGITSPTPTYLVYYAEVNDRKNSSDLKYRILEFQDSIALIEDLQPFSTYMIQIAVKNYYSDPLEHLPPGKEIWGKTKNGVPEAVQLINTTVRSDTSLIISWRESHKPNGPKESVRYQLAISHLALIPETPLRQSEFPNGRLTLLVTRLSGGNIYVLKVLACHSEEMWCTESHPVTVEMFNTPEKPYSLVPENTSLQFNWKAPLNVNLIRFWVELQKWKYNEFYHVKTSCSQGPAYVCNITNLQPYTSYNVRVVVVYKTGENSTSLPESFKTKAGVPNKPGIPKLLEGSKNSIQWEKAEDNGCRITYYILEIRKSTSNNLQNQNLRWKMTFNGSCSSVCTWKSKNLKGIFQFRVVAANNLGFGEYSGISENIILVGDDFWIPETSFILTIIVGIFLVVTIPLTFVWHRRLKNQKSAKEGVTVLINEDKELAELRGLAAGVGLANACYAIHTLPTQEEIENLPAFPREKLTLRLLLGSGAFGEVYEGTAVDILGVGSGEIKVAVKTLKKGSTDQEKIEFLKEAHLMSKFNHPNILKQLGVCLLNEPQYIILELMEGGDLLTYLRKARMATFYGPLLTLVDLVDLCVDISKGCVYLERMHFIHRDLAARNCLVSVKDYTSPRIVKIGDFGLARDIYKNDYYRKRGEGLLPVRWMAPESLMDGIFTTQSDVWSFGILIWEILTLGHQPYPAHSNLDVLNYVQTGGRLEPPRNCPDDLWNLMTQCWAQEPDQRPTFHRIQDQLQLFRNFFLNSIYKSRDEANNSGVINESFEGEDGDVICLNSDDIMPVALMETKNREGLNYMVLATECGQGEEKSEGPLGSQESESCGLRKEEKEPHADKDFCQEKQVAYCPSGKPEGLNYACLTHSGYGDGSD

[11] = read-out: % Enzyme Activity (relative to DMSO controls), CDK5/P25
[12] = read-out: % Enzyme Activity (relative to DMSO controls), CDK5/p35

T1 sequence (Q13554 whole entry): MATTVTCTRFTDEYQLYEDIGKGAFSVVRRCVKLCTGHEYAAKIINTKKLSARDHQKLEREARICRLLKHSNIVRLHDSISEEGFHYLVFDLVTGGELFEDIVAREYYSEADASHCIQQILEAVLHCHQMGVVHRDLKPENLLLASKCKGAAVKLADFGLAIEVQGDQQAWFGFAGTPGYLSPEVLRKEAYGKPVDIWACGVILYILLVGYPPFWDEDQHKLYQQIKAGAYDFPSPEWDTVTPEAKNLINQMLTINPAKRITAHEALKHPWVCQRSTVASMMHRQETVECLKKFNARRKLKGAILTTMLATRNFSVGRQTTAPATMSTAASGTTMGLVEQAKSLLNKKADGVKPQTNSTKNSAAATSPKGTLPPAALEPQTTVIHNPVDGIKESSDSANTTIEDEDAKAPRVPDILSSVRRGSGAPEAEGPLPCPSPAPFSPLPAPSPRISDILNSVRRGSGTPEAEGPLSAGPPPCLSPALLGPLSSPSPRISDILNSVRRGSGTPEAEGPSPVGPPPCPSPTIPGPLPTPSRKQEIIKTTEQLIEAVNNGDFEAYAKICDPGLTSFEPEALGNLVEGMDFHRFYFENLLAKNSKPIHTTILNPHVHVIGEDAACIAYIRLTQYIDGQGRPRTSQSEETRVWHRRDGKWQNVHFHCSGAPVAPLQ

Row | SMILES | remaining activity at 5 µM [1] [%] | remaining activity at 5 µM [2] [%] | remaining activity at 5 µM [3] [%] | remaining activity at 5 µM [4] [%] | remaining activity at 5 µM [5] [%] | remaining activity at 5 µM [6, 11] [%] | remaining activity at 5 µM [6, 12] [%] | remaining activity at 5 µM [7] [%] | remaining activity at 5 µM [8] [%] | remaining activity at 5 µM [9] [%] | remaining activity at 5 µM [10] [%] | also measured
1 | O=C(Nc1cnn(-c2csc(C(=O)NC3COC3)c2)c1)Nc1ccccc1Cl [Compound 17, 4-(4-(3-(2-chlorophenyl)ureido)-1H-pyrazol-1-yl)-N-(oxetan-3-yl)thiophene-2-carboxamide] | 105 | 101 | 102 | 104 | 95.4 | 101 | 95.4 | 87 | 145 | 75.4 | 103 | –
2 | Cc1sc(C(=O)NC2COC2)cc1-n1cc(NC(=O)Nc2c(F)cccc2Cl)cn1 [Compound 27, 4-(4-(3-(2-chloro-6-fluorophenyl)ureido)-1H-pyrazol-1-yl)-5-methyl-N-(oxetan-3-yl)thiophene-2-carboxamide] | – | – | – | – | – | – | – | – | – | – | – | remaining activity at 10 µM ([1]; 10 uM): 100%; remaining activity at 10 µM ([2]; 10 uM): 100%; remaining activity at 10 µM ([3]; 10 uM): 77%; remaining activity at 10 µM ([4]; 10 uM): 104%; remaining activity at 10 µM ([5]; 10 uM): 105%; remaining activity at 10 µM [6, 11]: 97.6%; remaining activity at 10 µM [6, 12]: 103%; remaining activity at 10 µM ([7]; 10 uM): 118%; remaining activity at 10 µM ([8]; 10 uM): 70%; remaining activity at 10 µM ([9]; 10 uM): 98.8%; remaining activity at 10 µM ([10]; 10 uM): 102%
3 | O=C(Nc1cnn(-c2csc(C(=O)NC3COC3)c2)c1)Nc1c(F)cccc1Cl [Compound 25, 4-(4-(3-(2-chloro-6-fluorophenyl)ureido)-1H-pyrazol-1-yl)-N-(oxetan-3-yl)thiophene-2-carboxamide] | 99.1 | 89.2 | 86.1 | 58.5 | 105 | 88.2 | 94.3 | 119 | 89.5 | 68.4 | 85.5 | –
